Data taken from PubChem BioAssay (NCI).
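Dose response: 5 concentrations. Exposure: 48 h. Format: 96-well plates. Endpoint: linear interpolation; highest concentration if not reached. TGI: total growth inhibition.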

Assays:
Experiment in all cases: DTP human tumour cell line panel, 48 h
[1] = tested on: HCT-15 colon
[2] = tested on: IGROV1 ovarian
[3] = tested on: NCI-H23 lung
[4] = tested on: EKVX NSCLC
[5] = tested on: M14 melanoma
[6] = tested on: CCRF-CEM leukemia
[7] = tested on: SF-295 CNS
[8] = tested on: 786-0 renal
[9] = tested on: DU-145 prostate
[10] = tested on: U251 CNS
[11] = tested on: SW-620 colon
[12] = tested on: PC-3 prostate
[13] = tested on: NCI-H460 lung
[14] = tested on: HS 578T breast
[15] = tested on: A549 NSCLC
[16] = tested on: KM12 colon
[17] = tested on: SK-MEL-28 melanoma
[18] = tested on: HT29 colon
[19] = tested on: BT-549 breast
[20] = tested on: RPMI-8226 leukemia
[21] = tested on: T-47D breast
[22] = tested on: OVCAR-3 ovarian
[23] = tested on: OVCAR-4 ovarian
[24] = tested on: UACC-257 melanoma
[25] = tested on: HOP-92 NSCLC
[26] = tested on: OVCAR-8 ovarian
[27] = tested on: SK-MEL-5 melanoma
[28] = tested on: HCT-116 colon
[29] = tested on: CAKI-1 renal
[30] = tested on: MCF7 breast
[31] = tested on: RXF 393 renal
[32] = tested on: MDA-MB-231 breast
[33] = tested on: TK-10 renal
[34] = tested on: SN12C renal
[35] = tested on: MDA-MB-435
[36] = tested on: K-562 leukemia
[37] = tested on: SF-268 CNS
[38] = tested on: NCI-H226 lung
[39] = tested on: UACC-62 melanoma
[40] = tested on: SK-OV-3 ovarian
[41] = tested on: MDA-N
[42] = tested on: LOX IMVI melanoma
[43] = tested on: HL-60(TB) leukemia
[44] = tested on: SF-539 CNS
[45] = tested on: MOLT-4 leukemia
[46] = tested on: OVCAR-5 ovarian
[47] = tested on: SNB-19 CNS
[48] = tested on: SNB-75 CNS
[49] = tested on: MALME-3M melanoma
[50] = tested on: HCC-2998 colon
[51] = tested on: HOP-62 NSCLC
[52] = tested on: A498 renal
[53] = tested on: SK-MEL-2 melanoma
[54] = tested on: NCI-H522 lung
[55] = tested on: ACHN renal
[56] = tested on: COLO 205 colon
[57] = tested on: UO-31 renal

Question: For `CC(=O)O[C@H]1CC[C@@]2(C)C(=CC[C@@H]3[C@@H]2CC[C@]2(C)c4nc(N)c(C#N)cc4C[C@@H]32)C1`, which TGI [1] is on record?
Answer: The TGI was > 42.6 µM.

Question: And the TGI [2]?
Answer: Its TGI is > 100 µM.

Question: And the TGI [3]?
Answer: The TGI was > 100 µM.

Question: And the TGI [4]?
Answer: The TGI was > 86.9 µM.

Question: And the TGI [5]?
Answer: Its TGI is > 100 µM.

Question: What about the TGI [6] of the same molecule?
Answer: The TGI was > 89.5 µM.

Question: What about the TGI [7] of the same molecule?
Answer: Its TGI is > 100 µM.

Question: And the TGI [8]?
Answer: The TGI was > 96 µM.

Question: What about the TGI [9] of the same molecule?
Answer: Its TGI is > 100 µM.

Question: And the TGI [10]?
Answer: Its TGI is > 100 µM.

Question: What about the TGI [11] of the same molecule?
Answer: The TGI was > 100 µM.

Question: And the TGI [12]?
Answer: The TGI was > 100 µM.

Question: And the TGI [13]?
Answer: Its TGI is > 100 µM.

Question: What about the TGI [14] of the same molecule?
Answer: The TGI was > 95.2 µM.

Question: And the TGI [15]?
Answer: The TGI was > 100 µM.

Question: What about the TGI [16] of the same molecule?
Answer: The TGI was > 100 µM.

Question: And the TGI [17]?
Answer: The TGI was > 100 µM.

Question: What about the TGI [18] of the same molecule?
Answer: The TGI was > 62.2 µM.

Question: And the TGI [19]?
Answer: The TGI was > 63.7 µM.

Question: What about the TGI [20] of the same molecule?
Answer: Its TGI is > 100 µM.

Question: What about the TGI [21] of the same molecule?
Answer: Its TGI is > 96.6 µM.

Question: And the TGI [22]?
Answer: Its TGI is 23.8 µM.

Question: What about the TGI [23] of the same molecule?
Answer: The TGI was > 86.9 µM.

Question: And the TGI [24]?
Answer: The TGI was > 100 µM.

Question: And the TGI [25]?
Answer: Its TGI is > 100 µM.

Question: What about the TGI [26] of the same molecule?
Answer: Its TGI is > 100 µM.

Question: And the TGI [27]?
Answer: The TGI was 43.4 µM.

Question: And the TGI [28]?
Answer: Its TGI is > 100 µM.

Question: And the TGI [29]?
Answer: The TGI was > 100 µM.

Question: What about the TGI [30] of the same molecule?
Answer: Its TGI is > 100 µM.

Question: What about the TGI [31] of the same molecule?
Answer: Its TGI is 49 µM.

Question: And the TGI [32]?
Answer: Its TGI is > 100 µM.

Question: And the TGI [33]?
Answer: Its TGI is > 100 µM.

Question: What about the TGI [34] of the same molecule?
Answer: Its TGI is > 100 µM.

Question: And the TGI [35]?
Answer: The TGI was > 100 µM.

Question: What about the TGI [36] of the same molecule?
Answer: Its TGI is > 100 µM.

Question: What about the TGI [37] of the same molecule?
Answer: The TGI was > 100 µM.

Question: And the TGI [38]?
Answer: Its TGI is > 100 µM.

Question: And the TGI [39]?
Answer: Its TGI is > 100 µM.

Question: And the TGI [40]?
Answer: Its TGI is > 83.8 µM.

Question: What about the TGI [41] of the same molecule?
Answer: The TGI was > 100 µM.

Question: What about the TGI [42] of the same molecule?
Answer: The TGI was > 100 µM.

Question: And the TGI [43]?
Answer: Its TGI is > 94.9 µM.

Question: And the TGI [44]?
Answer: The TGI was 64 µM.

Question: What about the TGI [45] of the same molecule?
Answer: Its TGI is > 100 µM.

Question: What about the TGI [46] of the same molecule?
Answer: The TGI was > 100 µM.

Question: What about the TGI [47] of the same molecule?
Answer: Its TGI is > 100 µM.

Question: And the TGI [48]?
Answer: The TGI was 23.6 µM.

Question: What about the TGI [49] of the same molecule?
Answer: Its TGI is > 100 µM.

Question: What about the TGI [50] of the same molecule?
Answer: Its TGI is > 100 µM.

Question: What about the TGI [51] of the same molecule?
Answer: The TGI was 46.5 µM.

Question: And the TGI [52]?
Answer: Its TGI is > 100 µM.

Question: And the TGI [53]?
Answer: The TGI was > 100 µM.

Question: What about the TGI [54] of the same molecule?
Answer: Its TGI is > 100 µM.

Question: What about the TGI [55] of the same molecule?
Answer: The TGI was > 100 µM.

Question: What about the TGI [56] of the same molecule?
Answer: Its TGI is > 100 µM.

Question: And the TGI [57]?
Answer: The TGI was > 100 µM.
